In patent publication US4668782A, “Anhydrous crystalline or crystalline hemihydrate monohydrate or trihydrate of cephalosporin derivative” (Teijin Limited, priority 1984, dated 1987):
Values after ≈ are worked out from the molar mass of the structure shown. Read-outs that look alike come from different tables or passages of the source.

Experiments:
[1] = format: physicochemical; details: sealed brown vials
Method: (2) The trihydrate, monohydrate, hemihydrate, and anhydride were sealed up in the brown vials respectively and stored at 85° C. and were analyzed by high performance liquid chromatography later. The result is shown in the following table (residuum percentage: %).

moisture uptake = format: physicochemical
physchem = details: water
[2] = tested on: Gram-positive and Gram-negative bacterials; details: Japanese Laid-Open Patent Publication No. 219292/1984; cited from earlier work
[3] = tested on: various kinds of Gram-positive and Gram-negative bacterias; assay: antibacterial activity against Gram-positive and Gram-negative bacteria (general statement); format: cell-based
[4] = tested on: Pseudomonas aeruginosa IFO 3445; assay: antibacterial activity, agar dilution plating method (MIC); format: cell-based; details: IFO3445
Method: (§1) (ii) The antibacterial activity of the obtained amorphous substance was determined according to the ordinary agar dilution plating method (see the Chemotherapy, 23(8), 1 (1975), of Japan Chemotherapy Society).

Proteus vulgaris OX-19 = assay: as above; format: cell-based; details: OX19
Method: as §1

[5] = tested on: Staphylococcus aureus FDA 209 PJC-1; assay: as above; format: cell-based; details: FDA209
Method: as §1

Typhoid bacillus 901 = assay: as above; format: cell-based
Method: as §1

[6] = tested on: Bacillus prodigiosus IAM 1184; assay: as above; format: cell-based; details: IAM1184
Method: as §1

[7] = tested on: Coliform bacillus NIHJ-JC-2; assay: as above; format: cell-based; details: NIHJJC2
Method: as §1

[8] = tested on: Aerobacter aerogenes ATCC 13048; assay: as above; format: cell-based; details: Klebsiella aerogenes, ATCC13048
Method: as §1

SMILES | residuum percentage ([1]; 240 h) | residuum percentage ([1]; 576 h) | conversion upon being allowed to take up moisture (moisture uptake) | further results
CO/N=C(\C(=O)N[C@@H]1C(=O)N2C(C(=O)[O-])=C(C[N+]34CCC(CC3)CC4)CS[C@H]12)c1csc(N)n1 [Amorphous substance, (6R,7R)-7-[(Z)-2-(2-aminothiazole-4-yl)-2-methoxyiminoacetoamido]-3-(1-quinuclidiniummethyl)-3-cephem-4-carboxylate] | 0% | 0% |  | 
CO/N=C(\C(=O)N[C@@H]1C(=O)N2C(C(=O)[O-])=C(C[N+]34CCC(CC3)CC4)CS[C@H]12)c1csc(N)n1 [Anhydride, (6R,7R)-7-[(Z)-2-(2-aminothiazole-4-yl)-2-methoxyiminoacetoamido]-3-(1-quinuclidiniummethyl)-3-cephem-4-carboxylate] | 97.5% | 86.0% | reversionally converted back to the original trihydrate | 
CO/N=C(\C(=O)N[C@@H]1C(=O)N2C(C(=O)[O-])=C(C[N+]34CCC(CC3)CC4)CS[C@H]12)c1csc(N)n1 [Hemihydrate, (6R,7R)-7-[(Z)-2-(2-aminothiazole-4-yl)-2-methoxyiminoacetoamido]-3-(1-quinuclidiniummethyl)-3-cephem-4-carboxylate] | 98.3% | 86.3% | reversionally converted back to the original trihydrate | 
CO/N=C(\C(=O)N[C@@H]1C(=O)N2C(C(=O)[O-])=C(C[N+]34CCC(CC3)CC4)CS[C@H]12)c1csc(N)n1 [Monohydrate, (6R,7R)-7-[(Z)-2-(2-aminothiazole-4-yl)-2-methoxyiminoacetoamido]-3-(1-quinuclidiniummethyl)-3-cephem-4-carboxylate] | 96.1% | 85.5% | reversionally converted back to the original trihydrate | 
CO/N=C(\C(=O)N[C@@H]1C(=O)N2C(C(=O)[O-])=C(C[N+]34CCC(CC3)CC4)CS[C@H]12)c1csc(N)n1 [Trihydrate, (6R,7R)-7-[(Z)-2-(2-aminothiazole-4-yl)-2-methoxyiminoacetoamido]-3-(1-quinuclidiniummethyl)-3-cephem-4-carboxylate] | 97.0% | 86.8% |  | 
CO/N=C(\C(=O)N[C@@H]1C(=O)N2C(C(=O)[O-])=C(C[N+]34CCC(CC3)CC4)CS[C@H]12)c1csc(N)n1 [cephalosporin derivative A, (6R,7R)-7-[(Z)-2-(2-aminothiazole-4-yl)-2-methoxyiminoacetoamido]-3-(1-quinuclidiniummethyl)-3-cephem-4-carboxylate] |  |  |  | solubility (physchem): ~300 mg/mL (≈ 592000 µM); antibacterial activity [2]: strong antibacterial activity
CO/N=C(\C(=O)N[C@@H]1C(=O)N2C(C(=O)[O-])=C(C[N+]34CCC(CC3)CC4)CS[C@H]12)c1nsc(N)n1 [cephalosporin derivative B, (6R,7R)-7-[(Z)-2-(5-amino-1-thia-2,4-diazole-3-yl)-2-methoxyiminoacetoamido]-3-(1-quinuclidiniummethyl)-3-cephem-4-carboxylate] |  |  |  | solubility (physchem): ~300 mg/mL (≈ 591000 µM); antibacterial activity [3]: strong antibacterial activity; MIC [4]: 0.4 µg/mL (≈ 0.788 µM); MIC (Proteus vulgaris OX-19): 0.2 µg/mL (≈ 0.394 µM); MIC [5]: 3.1 µg/mL (≈ 6.11 µM); MIC (Typhoid bacillus 901): 0.2 µg/mL (≈ 0.394 µM); MIC [6]: 0.1 µg/mL (≈ 0.197 µM); MIC [7]: 0.05 µg/mL (≈ 0.0985 µM); MIC [8]: 0.1 µg/mL (≈ 0.197 µM)
